1 molecule from ChEMBL document CHEMBL1131974, “Asymmetric synthesis and antitumor activity of cycloalkanin” (1999) can be followed below.

Experiment [1] deals with A549. Description: In vitro cytotoxic activity against A549 tumor cell line by SRB assay at 72 hour at a concentration 10E-4 (M/L). Format: functional, Homo sapiens.
Experiment [2] deals with P388. Description: In vitro cytotoxic activity against P388 tumor cell line by MTT assay at 48 hour at a concentration 10E-5 (M/L). Format: functional, Mus musculus.
The test system of experiment [3] is A549. Description: In vitro cytotoxic activity against A549 tumor cell line by SRB assay at 72 hour at a concentration 10E-8 (M/L). Format: functional, Homo sapiens.
Experiment [4] deals with P388. Nature of the experiment: In vitro cytotoxic activity against P388 tumor cell line by MTT assay at 48 hour at a concentration 10E-4 (M/L). Format: functional, Mus musculus.
Experiment [5] concerns P388. Description: In vitro cytotoxic activity against P388 tumor cell line by MTT assay at 48 hour at a concentration 10E-7 (M/L). Format: functional, Mus musculus.
Experiment [6] concerns P388. Description: In vitro cytotoxic activity against P388 tumor cell line by MTT assay at 48 hour at a concentration 10E-6 (M/L). Format: functional, Mus musculus.
Experiment [7] has as its system A549. Nature of the experiment: In vitro cytotoxic activity against A549 tumor cell line by SRB assay at 72 hour at a concentration 10E-7 (M/L). Format: functional, Homo sapiens.
For experiment [8], the system named is A549. Description: In vitro cytotoxic activity against A549 tumor cell line by SRB assay at 72 hour at a concentration 10E-6 (M/L). Format: functional, Homo sapiens.
For experiment [9], the system named is P388. Description: In vitro cytotoxic activity against P388 tumor cell line by MTT assay at 48 hour at a concentration 10E-8 (M/L). Format: functional, Mus musculus.
Experiment [10] has as its system A549. Description: In vitro cytotoxic activity against A549 tumor cell line by SRB assay at 72 hour at a concentration 10E-5 (M/L). Format: functional, Homo sapiens.

Take `CC1(C)CC[C@H](C2=CC(=O)c3c(O)ccc(O)c3C2=O)O1`: the Inhibition with A549 [1] is 92.5%; with P388 [2], 98.9%; in the experiment with A549 [3] it was 0%; in the experiment on P388 [4], 98.9%; in the experiment with P388 [5] it was 98.9%; with P388 [6], 98.9%. Besides, the Inhibition stood at 14% in the experiment on A549 [7], 24.7% in the experiment with A549 [8], 98.9% in the experiment on P388 [9] and 93.5% in the experiment with A549 [10].
